# Laboratory results as given in US20150196578A1, “COMBINATION THERAPY TREATMENT FOR VIRAL INFECTIONS” (priority 2009, published 2015).
# “And” between values parts separate entries of the source, which are not always exact repeats. Identical values can stand only once. Like-named read-outs stand apart in the source and are kept apart here.
# System: Influenza A/Duck/MN/1525/81 (H5N1) virus
# Design: species or system BALB/c mice
# Conditions: mouse, in vivo
SMILES,mice survived to day 21,survival rate [%],mean day of death (MDD) (sodium salt),mean day of death (MDD)
"CC#CCC(C)[C@H](O)/C=C/[C@@H]1[C@H]2c3cccc(CCCC(=O)[O-])c3O[C@H]2C[C@H]1O.[Na+] (mixture of isomers) [beraprost, (+)-[1R,2R,3aS,8bS]-2,3,3a,8b-tetrahydro-2-hydroxyl-1-[(E)-(3S,4RS)-3-hydroxyl-4-methyl-1-octen-6-ynyl)-1H-cyclopenta[b]benzofuran-5-butanoic acid, sodium salt]",6 of 10,50,9.0 ± 3.9 days and 8.0 ± 2.0 days,–
CCOC(=O)C1=C[C@@H](OC(CC)CC)[C@H](NC(C)=O)[C@@H](N)C1 [oseltamivir],8 out of 10,70,–,9.0 ± 0.0 days and 11.4 ± 1.8 days
